The values that follow come from paper PMC6934184, “Selective DNA-PKcs inhibition extends the therapeutic index of localized radiotherapy and chemotherapy” (The Journal of Clinical Investigation, 2019).

The target in the assay is T1, ADRBK1 (GRK2) (Homo sapiens, UniProt P25098).
T1 construct: purchased Thermo Fisher Scientific (Life Technologies) SelectScreen
In words: SelectScreen Z'LYTE. The class given is biochemical. Summed up:
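NU5455 was profiled across the SelectScreen Broad panel of kinase activity and binding assays. Z'LYTE reactions such as CSF1R ran at apparent Km ATP, while the Adapta CAMK1 assay used ATP listed as 10. Values are given as percent.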

T1 sequence (P25098 whole entry): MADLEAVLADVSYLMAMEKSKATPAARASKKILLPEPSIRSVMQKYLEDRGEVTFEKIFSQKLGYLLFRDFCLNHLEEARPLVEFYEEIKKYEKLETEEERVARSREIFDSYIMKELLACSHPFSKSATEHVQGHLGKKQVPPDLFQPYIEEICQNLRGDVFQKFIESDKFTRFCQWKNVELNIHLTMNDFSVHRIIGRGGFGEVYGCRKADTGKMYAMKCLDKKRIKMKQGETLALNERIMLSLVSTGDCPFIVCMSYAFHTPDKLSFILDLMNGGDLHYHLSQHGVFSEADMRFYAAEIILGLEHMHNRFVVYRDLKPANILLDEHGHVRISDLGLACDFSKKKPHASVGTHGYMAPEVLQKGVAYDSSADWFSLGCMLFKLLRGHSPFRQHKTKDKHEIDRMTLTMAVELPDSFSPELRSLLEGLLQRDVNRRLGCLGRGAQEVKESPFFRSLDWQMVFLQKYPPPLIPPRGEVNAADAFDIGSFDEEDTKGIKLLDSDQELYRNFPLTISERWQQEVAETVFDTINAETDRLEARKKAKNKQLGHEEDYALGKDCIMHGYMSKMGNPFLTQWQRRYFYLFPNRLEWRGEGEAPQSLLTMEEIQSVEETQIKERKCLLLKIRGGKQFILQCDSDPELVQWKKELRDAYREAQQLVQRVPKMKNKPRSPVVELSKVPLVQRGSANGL

The inhibition is the change of the read-out against control, counted positive when it falls. In the case of `CN(C(=O)CN1CCOCC1)c1ccc2sc3c(-c4cccc5c(=O)cc(N6CC7CCC(C6)O7)oc45)cccc3c2c1` [NU5455], the inhibition at 1 µM was -2%.
